{"source": "the supplement of paper PMC11208160"}
{"test": "recombinant barcode read abundance after kanamycin selection (control-corrected) (log10(CPM+1)); higher = more efficient recombination; sequences stand for … in AGTGCAGAGAAAATCGGCCAGTTTTCTCTGCCTGCAGTCCGCATGCCGT…AGATTTATGCAGCGGACTGCCTTTCTCCCAAAGTGATAAACCGGACAGTATCATGGACCGGTTTTCCCGGTAATCCGTATTTGCAAGGTTGGTTTCACT; site = the 11-nt target", "method_in_brief": "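Targets and IS621 bridge RNA target-binding loops were paired in oligos, each with a promoter, a barcode and the J23119-driven first 104 bridge RNA bases. A vector carrying the remaining 73 bp and a T7-inducible recombinase received these by Gibson cloning, and the pool was co-electroporated into E. coli with a donor plasmid. Duplicate plates contained chloramphenicol/ampicillin LB agar (control) or chloramphenicol/ampicillin/kanamycin with 0.1 mM IPTG. Recombination efficiency comes from averaged, control-corrected counts per million of recombinant-junction barcodes, reported as log10(CPM+1).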"}
{"sequence": "CCTGAGACTTGGGTTCTAACCTGTTGCAG (site CCTGGCACTCT)", "recombinant barcode read abundance (log10)": 0.297}
{"sequence": "GACTTACCTTGGGTTCTAACCTGTTGCCT (site GACATACCTAG)", "recombinant barcode read abundance (log10)": 0.134}
{"sequence": "AGCATCACTTGGGTTCTAACCTGTTGCCT (site AACATCACTCG)", "recombinant barcode read abundance (log10)": 0.135}
{"sequence": "CTAGGCCCTTGGGTTCTAACCTGTTGCCT (site CTAGGCCCTAC)", "recombinant barcode read abundance (log10)": 2.1}
{"sequence": "TCTGAGGCTTGGGTTCTAACCTGTTGCTG (site TCAGAGGCTCA)", "recombinant barcode read abundance (log10)": 0.263}
{"sequence": "AGTACCTCTTGGGTTCTAACCTGTTGCCT (site ACTACCTCTAG)", "recombinant barcode read abundance (log10)": 0.283}
{"sequence": "TTAGGGACTTGGGTTCTAACCTGTTGCCT (site TTAGGGCCTAG)", "recombinant barcode read abundance (log10)": 0.0947}
{"sequence": "CATGCTACTTGGGTTCTAACCTGTTGCTC (site CATGCGACTCA)", "recombinant barcode read abundance (log10)": 0.191}
{"sequence": "TCACGTCCTTGGGTTCTAACCTGTTGCAT (site TCACGTCCTAT)", "recombinant barcode read abundance (log10)": 0.576}
{"sequence": "TAGTATCCTTGGGTTCTAACCTGTTGCGT (site TAGTCTCCTAC)", "recombinant barcode read abundance (log10)": 0.0759}
{"sequence": "TGCGGAGCTTGGGTTCTAACCTGTTGCGG (site TGCGGAGCTCC)", "recombinant barcode read abundance (log10)": 1.81}
{"sequence": "TAGTACTCTTGGGTTCTAACCTGTTGCTA (site TAGTACTCTGA)", "recombinant barcode read abundance (log10)": 0.164}
{"sequence": "TCCACATCTTGGGTTCTAACCTGTTGCCT (site TCCACATCTAG)", "recombinant barcode read abundance (log10)": 0.477}
{"sequence": "GCAATGTCTTGGGTTCTAACCTGTTGCCT (site GAAATGTCTAG)", "recombinant barcode read abundance (log10)": 0.104}
{"sequence": "CACGGGACTTGGGTTCTAACCTGTTGCAG (site TCGAACGCTAA)", "recombinant barcode read abundance (log10)": 0.111}
{"sequence": "GCAAGATCTTGGGTTCTAACCTGTTGCCT (site GCAGGGTCTAG)", "recombinant barcode read abundance (log10)": 0.0113}
{"sequence": "TTAACTACTTGGGTTCTAACCTGTTGCTG (site TTAACTACTAA)", "recombinant barcode read abundance (log10)": 0.0189}
{"sequence": "CGCAGCCCTTGGGTTCTAACCTGTTGCAT (site CGCAGCCCTAT)", "recombinant barcode read abundance (log10)": 0.462}
{"sequence": "GTCAACCCTTGGGTTCTAACCTGTTGCGG (site GTAAACCCTCC)", "recombinant barcode read abundance (log10)": 0.886}
{"sequence": "GTCATGTCTTGGGTTCTAACCTGTTGCCT (site GTCATGTCTAG)", "recombinant barcode read abundance (log10)": 1.45}
{"sequence": "AAGTGCTCTTGGGTTCTAACCTGTTGCCT (site ATGTGCTCTAG)", "recombinant barcode read abundance (log10)": 0.127}
{"sequence": "TCCAAGGCTTGGGTTCTAACCTGTTGCCT (site TCAAAGGCTAG)", "recombinant barcode read abundance (log10)": 0.0841}
{"sequence": "CACCACTCTTGGGTTCTAACCTGTTGCCT (site CACCACTCTAG)", "recombinant barcode read abundance (log10)": 1.56}
{"sequence": "GAGAAGACTTGGGTTCTAACCTGTTGCGT (site GAGAAGACTAC)", "recombinant barcode read abundance (log10)": 2.56}
{"sequence": "TTAGTGCCTTGGGTTCTAACCTGTTGCCT (site TTAGTACCTAG)", "recombinant barcode read abundance (log10)": 1.55}
{"sequence": "GCCAGGGCTTGGGTTCTAACCTGTTGCCG (site GCCAGGGCTCG)", "recombinant barcode read abundance (log10)": 0.461}
{"sequence": "GAGTGGCCTTGGGTTCTAACCTGTTGCAT (site GAGTGGCCTAC)", "recombinant barcode read abundance (log10)": 0.385}
{"sequence": "TCTTGTCCTTGGGTTCTAACCTGTTGCGA (site TCTTGTCCTTC)", "recombinant barcode read abundance (log10)": 0.253}
{"sequence": "GCGTGCCCTTGGGTTCTAACCTGTTGCCT (site CCGTGCCCTAG)", "recombinant barcode read abundance (log10)": 0.552}
{"sequence": "TTGGTCCCTTGGGTTCTAACCTGTTGCCT (site TTGGTACCTAG)", "recombinant barcode read abundance (log10)": 0.565}
{"sequence": "TAGGACACTTGGGTTCTAACCTGTTGCCA (site TCGGATACTTG)", "recombinant barcode read abundance (log10)": 0.198}
{"sequence": "TTAGGGGCTTGGGTTCTAACCTGTTGCCT (site TTAGGGACTAG)", "recombinant barcode read abundance (log10)": 0.911}
{"sequence": "AAAATATCTTGGGTTCTAACCTGTTGCCT (site TCGTACCCTTT)", "recombinant barcode read abundance (log10)": 0.0268}
{"sequence": "CTAAATCCTTGGGTTCTAACCTGTTGCAT (site CTAAGTCCTAT)", "recombinant barcode read abundance (log10)": 0.0712}
{"sequence": "TGGAACCCTTGGGTTCTAACCTGTTGCGG (site TGGAACCCTCC)", "recombinant barcode read abundance (log10)": 0.706}
{"sequence": "GGTGAGGCTTGGGTTCTAACCTGTTGCAT (site GGTGAGGCTAT)", "recombinant barcode read abundance (log10)": 2.31}
{"sequence": "CAGCGGCCTTGGGTTCTAACCTGTTGCCT (site CAGTGGCCTAG)", "recombinant barcode read abundance (log10)": 0.718}
{"sequence": "CAGGTACCTTGGGTTCTAACCTGTTGCAG (site CAGGTACCTCT)", "recombinant barcode read abundance (log10)": 3.12}
{"sequence": "ATTTGTACTTGGGTTCTAACCTGTTGCCT (site ATTTGCACTAG)", "recombinant barcode read abundance (log10)": 0.0709}
{"sequence": "TATCTGACTTGGGTTCTAACCTGTTGCCT (site TATCAGACTTG)", "recombinant barcode read abundance (log10)": 0.0204}
{"sequence": "CTATTGACTTGGGTTCTAACCTGTTGCCT (site CTATCGACTAG)", "recombinant barcode read abundance (log10)": 0.246}
{"sequence": "TAGACTACTTGGGTTCTAACCTGTTGCTT (site TAGACTACTAA)", "recombinant barcode read abundance (log10)": 0.0704}
{"sequence": "CAAGGGCCTTGGGTTCTAACCTGTTGCCT (site CAACGGCCTAG)", "recombinant barcode read abundance (log10)": 0.0504}
{"sequence": "GCGGCTTCTTGGGTTCTAACCTGTTGCCT (site GAGGCTTCTAG)", "recombinant barcode read abundance (log10)": 0.0638}
{"sequence": "TATAGAACTTGGGTTCTAACCTGTTGCCT (site TATAAAACTAG)", "recombinant barcode read abundance (log10)": 0.119}
{"sequence": "CTCTAGTCTTGGGTTCTAACCTGTTGCTT (site CTCTAGTCTAA)", "recombinant barcode read abundance (log10)": 0.748}
{"sequence": "TAGTGTGCTTGGGTTCTAACCTGTTGCGT (site TAGTGTGCTAA)", "recombinant barcode read abundance (log10)": 0.0341}
{"sequence": "TCTCATTCTTGGGTTCTAACCTGTTGCGT (site TCTGATTCTAC)", "recombinant barcode read abundance (log10)": 0.163}
{"sequence": "AACGACGCTTGGGTTCTAACCTGTTGCCT (site AACGACGCTAG)", "recombinant barcode read abundance (log10)": 1.02}
{"sequence": "TCGAATGCTTGGGTTCTAACCTGTTGCCT (site TCGAATGCTAG)", "recombinant barcode read abundance (log10)": 0.0629}
{"sequence": "GGACGTCCTTGGGTTCTAACCTGTTGCCT (site GGACGACCTAG)", "recombinant barcode read abundance (log10)": 0.0935}
{"sequence": "TGGAGCCCTTGGGTTCTAACCTGTTGCAC (site TGGAGCCCTCT)", "recombinant barcode read abundance (log10)": 0.114}
{"sequence": "CTAAGGTCTTGGGTTCTAACCTGTTGCAT (site CTAAGGTCTAT)", "recombinant barcode read abundance (log10)": 2.33}
{"sequence": "TTGCGAACTTGGGTTCTAACCTGTTGCCT (site TTGCCAACTAG)", "recombinant barcode read abundance (log10)": 0.269}
{"sequence": "TCCCAGTCTTGGGTTCTAACCTGTTGCTT (site TCCCAGTCTAG)", "recombinant barcode read abundance (log10)": 0.684}
{"sequence": "ACTGGGCCTTGGGTTCTAACCTGTTGCGA (site ACTCGGCCTTC)", "recombinant barcode read abundance (log10)": 0.191}
{"sequence": "TGAGATGCTTGGGTTCTAACCTGTTGCCT (site TGAAATGCTAG)", "recombinant barcode read abundance (log10)": 0.199}
{"sequence": "CCGTCTACTTGGGTTCTAACCTGTTGCTG (site CCGTCTACTAA)", "recombinant barcode read abundance (log10)": 0.019}
{"sequence": "CGCTCGTCTTGGGTTCTAACCTGTTGCCT (site CGCTAGTCTAG)", "recombinant barcode read abundance (log10)": 0.0163}
{"sequence": "TATAACTCTTGGGTTCTAACCTGTTGCCT (site AATAACTCTAG)", "recombinant barcode read abundance (log10)": 0.0281}
{"sequence": "GACGCAACTTGGGTTCTAACCTGTTGCAT (site GACGCTTCTAT)", "recombinant barcode read abundance (log10)": 0.0419}
{"sequence": "TGAGTCCCTTGGGTTCTAACCTGTTGCTA (site TGGGTCCCTAA)", "recombinant barcode read abundance (log10)": 0.0131}
{"sequence": "GTGTCAACTTGGGTTCTAACCTGTTGCCT (site GTGTCAACTAG)", "recombinant barcode read abundance (log10)": 0.343}
{"sequence": "TGACGTCCTTGGGTTCTAACCTGTTGCAT (site TGACGTCCTAA)", "recombinant barcode read abundance (log10)": 0.0504}
{"sequence": "TCAGATTCTTGGGTTCTAACCTGTTGCCT (site TCAAATTCTAG)", "recombinant barcode read abundance (log10)": 0.0231}
{"sequence": "AGTAAGTCTTGGGTTCTAACCTGTTGCCT (site AATAAGTCTAG)", "recombinant barcode read abundance (log10)": 0.0805}
{"sequence": "TGAGTCCCTTGGGTTCTAACCTGTTGCTA (site TGAGTCCCTTA)", "recombinant barcode read abundance (log10)": 2.27}
{"sequence": "TCGCGTTCTTGGGTTCTAACCTGTTGCTT (site TCGCATTCTAT)", "recombinant barcode read abundance (log10)": 0.217}
{"sequence": "TCACGTCCTTGGGTTCTAACCTGTTGCCT (site TCACGTCCTAT)", "recombinant barcode read abundance (log10)": 0.144}
{"sequence": "CCTGGAGCTTGGGTTCTAACCTGTTGCAT (site CCTGGAGCTAT)", "recombinant barcode read abundance (log10)": 0.654}
{"sequence": "GTTGGGACTTGGGTTCTAACCTGTTGCCT (site GTTGGGACTAG)", "recombinant barcode read abundance (log10)": 2}
{"sequence": "GTGGTACCTTGGGTTCTAACCTGTTGCCT (site GTGGTAGCTAG)", "recombinant barcode read abundance (log10)": 0.0565}
{"sequence": "TAGGCGCCTTGGGTTCTAACCTGTTGCTT (site TAGGCGCCTAG)", "recombinant barcode read abundance (log10)": 0.193}
{"sequence": "TTCAGACCTTGGGTTCTAACCTGTTGCCT (site AGGTACACTGT)", "recombinant barcode read abundance (log10)": 0.0824}
{"sequence": "ATGGGCCCTTGGGTTCTAACCTGTTGCTT (site ATGGGCCCTCA)", "recombinant barcode read abundance (log10)": 0.00714}
{"sequence": "TCAAATTCTTGGGTTCTAACCTGTTGCCT (site TCAAATTCTAG)", "recombinant barcode read abundance (log10)": 0.0401}
{"sequence": "AATTGTCCTTGGGTTCTAACCTGTTGCAT (site AATTGTCCTAG)", "recombinant barcode read abundance (log10)": 0.0432}
{"sequence": "TTGGCCACTTGGGTTCTAACCTGTTGCCT (site TTGGCCACTAG)", "recombinant barcode read abundance (log10)": 1.08}
{"sequence": "ACACTCCCTTGGGTTCTAACCTGTTGCTG (site ACACACTCTCA)", "recombinant barcode read abundance (log10)": 0.104}
{"sequence": "GGGCCCGCTTGGGTTCTAACCTGTTGCCT (site GGGCCCGCTAG)", "recombinant barcode read abundance (log10)": 1.84}
{"sequence": "TCACGTCCTTGGGTTCTAACCTGTTGCAT (site TCACGTCCTAG)", "recombinant barcode read abundance (log10)": 0.745}
{"sequence": "CGAGTGTCTTGGGTTCTAACCTGTTGCTA (site CGAGTGTCTTA)", "recombinant barcode read abundance (log10)": 1.96}
{"sequence": "TAAAAGGCTTGGGTTCTAACCTGTTGCCT (site TAAAAGCCTAG)", "recombinant barcode read abundance (log10)": 0.0288}
{"sequence": "AAGCCACCTTGGGTTCTAACCTGTTGCCT (site GAGCCACCTAG)", "recombinant barcode read abundance (log10)": 0.392}
{"sequence": "GACGGACCTTGGGTTCTAACCTGTTGCTA (site ATAACGGCTAG)", "recombinant barcode read abundance (log10)": 0.0648}
{"sequence": "TGACATGCTTGGGTTCTAACCTGTTGCCT (site TGATATGCTAG)", "recombinant barcode read abundance (log10)": 0.172}
